Patent publication US20090054491A1, “Use” (AstraZeneca AB, priority 2005, published 2009)

Test system: Female C57Bl6 mice
Assay: Pharmacodynamic effect in mouse (intake of bland and palatable paste after fasting, body weight change)
Type: in vivo
Protocol: Female C57Bl6 mice (19-21 g) are singly housed for 7-days with ad libitum access to a “bland-paste” made from normal laboratory chow (R-3 Lactanin, Vadstena, Sweden) or to a “palatable-paste” of similar consistency containing oatmeal, butter, sugar, cocoa powder, cocoa butter and peanut butter. The day before the experimental day, food is removed for 12 hours. O the experiment day, animals are weighed and compound or vehicle is administered. Animals are returned to their home cages and given access to weighed amounts of both bland and palatable pastes. This food is then re-weighed 2, and optionally 4 and 6 hours later, and consumption of each food type calculated by the difference from initial food weight. Animals are further weighed at 24 hours after administration, and change in body weight over the treatment period is calculated.

COCc1cc(C#N)cc(-c2nc(-c3ccc(F)cn3)no2)c1 [3-[3-(5-fluoropyridin-2-yl)-1,2,4-oxadiazol-5-yl]-5-(methoxymethyl)benzonitrile]
body weight recovery after fasting (compared to vehicle treated animals, FIG. 2): slower body weight recovery | effect on normal laboratory chow (intake) (measured 2 hours after treatment, bland paste, fasted mice, FIG. 1): no effect | intake of sweets (measured 2 hours after treatment, palatable paste, fasted mice, FIG. 1): decreased intake of sweets measured 2 hours after treatment in a dose-related manner
